Reference: patent US20050033056A1, “Hydroxylated indole derivatives and uses thereof” (priority 2001, published 2005)

Tests used:
CYP1A2 = target: T1, CYP1A2 (Homo sapiens, UniProt P05177); test: CYP inhibition in HLM: R-warfarin 6-hydroxylation; assay type: in vitro ADME; details: 10 or 50 μM
T1 construct: tissue Gentest Corp. (Woburn, Mass.); host or cells: pooled human liver microsomes
T1 sequence (P05177 1-516): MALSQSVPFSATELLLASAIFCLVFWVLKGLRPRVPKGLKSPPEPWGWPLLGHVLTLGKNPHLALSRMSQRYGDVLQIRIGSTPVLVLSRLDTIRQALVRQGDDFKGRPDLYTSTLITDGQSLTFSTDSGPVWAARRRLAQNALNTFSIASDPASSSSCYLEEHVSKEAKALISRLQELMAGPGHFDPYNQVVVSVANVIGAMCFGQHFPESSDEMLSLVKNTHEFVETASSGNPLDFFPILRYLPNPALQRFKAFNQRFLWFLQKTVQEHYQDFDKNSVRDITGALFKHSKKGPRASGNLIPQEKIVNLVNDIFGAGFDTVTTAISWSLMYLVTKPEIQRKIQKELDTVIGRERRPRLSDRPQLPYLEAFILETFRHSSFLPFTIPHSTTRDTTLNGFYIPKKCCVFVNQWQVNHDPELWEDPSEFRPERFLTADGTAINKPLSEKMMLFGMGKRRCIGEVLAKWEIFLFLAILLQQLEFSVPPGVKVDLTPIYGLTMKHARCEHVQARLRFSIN
Experimental: The incubations were carried out in test tubes (12.0×75 mm). The incubation mixtures (250 μL) contained 0.5 mg of HLM protein, 50 (CYP1A2 and CYP2E1) or 25 (CYP2C9, CYP2C19, CYP2D6 and CYP3A4) pmol of recombinant human CYPs, Compound 1 (10 or 50 μM), probe substrate (R—, S-warfarin, chlorzoxazone, S-mephenyloin, or bufuralol) at different concentrations, and 0.5 mg of NADPH in 50 mM Tris buffer containing 15 mM MgCl2 (pH 7.4). Compound 1 was added to the reaction mixture 5 minutes prior to the addition of the probe substrate. […]
The quantification was based on the calibration curves, and the quality control (QC) samples were applied to ensure the quality of the experiments. […]
1. CYP1A2/2C9/3A4-mediated warfarin 6-, 7-, 8-, and 10-hydroxylation (Zhang et al., Drug Metab. Dispos. 23:1339-1346, 1995; Rettie et al., Chem. Res. Toxicol. 5:54-59, 1992; Brian et al., Biochemistry 29:11280-11292, 1990): Hewlett Packard 1100 HPLC system (Waldbronn, Germany) comprised a binary pump, an autosampler, a column compartment unit, a photodiode array detector (PDA), and a fluorescence detector. […] The warfarin metabolites, 6-, 8-, and 10-hydroxywarfarin, were monitored by UV at 313 nm, and 7-hydroxywarfarin by fluorescence at Ex320 nm/Em380 nm. […]

CYP2C19/2C8/2C9 = test: CYP induction in primary human hepatocytes, Western immunoblotting: CYP2C19/2C8/2C9; assay type: cell-based; details: 10 or 50 μM for 72 hours; hepatocytes from three donors
Experimental: Upon receiving a primary culture of human hepatocytes in 6-well plates, the culture medium containing streptomycin/penicillin was refreshed (2 ml/well). […] The culture medium and testing compounds were replenished every 24 hours.
At the end of the treatment, the cells were harvested into 1 mL of phosphate-buffered saline (PBS) after washing twice. The cells were precipitated by centrifugation, and were resuspended in PBS (approximately 50 μL).
The membrane was blocked by 5% non-fat dried milk (NFDM) blotting buffer (PBS containing 0.05% Tween 20) at 4° C. overnight. […] The membrane was rinsed six times (10 minutes each time) with the blotting buffer, and exposed to 1:10,000 diluted secondary antibodies labeled with horseradish peroxidase for 1 hour at room temperature. After being extensively rinsed with the blotting buffer, the membrane was exposed to the substrate of peroxidase (enhanced chemiluminescence reagent). CYP proteins were detected by […] using an X-ray developer.

CNC(=O)Cc1ccc2ccn(C3CCN(CCc4ccccc4F)CC3)c2c1 [Compound 1, N-methyl-[1-[1-(2-fluorophenethyl)piperidine-4-yl]-1H-indol-6-yl] acetamide]
inhibitory effect on CYP1A2 activity (in words) (CYP1A2): no inhibitory effect | expression of CYP2C19/2C8/2C9 (Western immunoblotting) (CYP2C19/2C8/2C9): did not increase
